# Test results from patent US11207310B2 (PRILENIA NEUROTHERAPEUTICS LTD., priority 2016, dated 2021).
# Where two headings read alike, the source gives them in different places.
# System: patients with HD
# Description: The mPPT quantifies the patient's performance in physical tasks (Brown 2000). It is a standardized 9-item test (standing static balance, chair rise, lift a book and put it on a shelf, put on and remove a jacket, pick up a penny from floor, turn 360 degrees, 50 feet walk, climb one flight of stairs, climb stairs test (flights up and down)), that measures the patient's performance on functional tasks. Both the speed and accuracy at which the patients complete the items are taken into account during scoring. The maximum score of the test is 36, with higher scores indicating better performance. The Multiple Sclerosis Walking Scale (MSWS-12) was adapted to become a generic measure of walking and mobility and renamed the Walk-12.
# The secondary efficacy variable and endpoint, the Modified Physical Performance Test (mPPT), quantifies the patient's performance in physical tasks (Brown 2000). It is a standardized 9-item test that measures the patient's performance on functional tasks. Assistive devices are permitted for the tasks that require a standing position (items 6 to 9). Both the speed and accuracy at which the patients complete the items were taken into account during scoring. The maximum score of the test is 36, with higher scores indicating better performance.
# [1] = 45 mg bid, HD1 and HD2 patients, 52 weeks
# [2] = 45 mg bid, full analysis set, 26 weeks
# [3] = 45 mg bid, full analysis set, 52 weeks
# [4] = 45 mg bid, late stage HD patients with BL TFC<7, 52 weeks
# [5] = 67.5 mg bid, HD1 and HD2 patients, 52 weeks
# [6] = 67.5 mg bid, full analysis set, 26 weeks
# [7] = 67.5 mg bid, full analysis set, 52 weeks
# [8] = 67.5 mg bid, late stage HD patients with BL TFC<7, 52 weeks
# [9] = 90 mg bid, HD1 and HD2 patients, 52 weeks
# [10] = 90 mg bid, full analysis set, 26 weeks
# [11] = 90 mg bid, full analysis set, 52 weeks
compound,measurement,setting,value
"CCCN1CCC(c2cccc(S(C)(=O)=O)c2)CC1 [pridopidine, 4-[3-(methylsulfonyl)phenyl]-1-propyl-piperidine]","Change from baseline in mPPT Climb One Flight of Stairs scores, Δ to placebo",[1],0.27
same,"Change from baseline in mPPT Climb Stairs (Flights Up and Down) scores, Δ to placebo",[1],−0.01
same,"Change from baseline in mPPT Climb One Flight of Stairs scores, Δ to placebo","45 mg bid, HD1 patients, 52 weeks",−0.02
same,"Change from baseline in mPPT Climb One Flight of Stairs scores, Δ to placebo","45 mg bid, HD2 patients, 52 weeks",0.35
same,"Change from baseline in mPPT Climb Stairs (Flights Up and Down) scores, Δ to placebo",[2],−0.03
same,"Δ to placebo: mPPT 50 Feet Walk scores, change from baseline",[2],−0.02
same,Δ to placebo: mPPT Chair Rise scores,[2],0.05
same,"Δ to placebo: mPPT Climb One Flight of Stairs scores, change from baseline",[2],0.08
same,"Δ to placebo: mPPT Lift a Book and Put it on the Shelf scores, change from baseline",[2],0.14
same,"Δ to placebo: mPPT Pick up a Penny from the Floor scores, change from baseline",[2],−0.13
same,"Δ to placebo: mPPT Put on and Remove a Jacket scores, change from baseline",[2],−0.22
same,"Δ to placebo: mPPT Turn 360 Degrees scores, change from baseline",[2],0.12
same,Δ to placebo: mPPT standing static balance scores,[2],0.07
same,"Change from baseline in mPPT Climb Stairs (Flights Up and Down) scores, Δ to placebo",[3],0.17
same,"Δ to placebo: mPPT 50 Feet Walk scores, change from baseline",[3],−0.03
same,Δ to placebo: mPPT Chair Rise scores,[3],−0.05
same,"Δ to placebo: mPPT Climb One Flight of Stairs scores, change from baseline",[3],0.26
same,"Δ to placebo: mPPT Lift a Book and Put it on the Shelf scores, change from baseline",[3],0.25
same,"Δ to placebo: mPPT Pick up a Penny from the Floor scores, change from baseline",[3],0.04
same,"Δ to placebo: mPPT Put on and Remove a Jacket scores, change from baseline",[3],0.2
same,"Δ to placebo: mPPT Turn 360 Degrees scores, change from baseline",[3],−0.12
same,Δ to placebo: mPPT standing static balance scores,[3],−0.15
same,"Change from baseline in mPPT Climb One Flight of Stairs scores, Δ to placebo","45 mg bid, late stage HD patients with BL TFC 0-6, 52 weeks",0.19
same,"Change from baseline in mPPT Climb Stairs (Flights Up and Down) scores, Δ to placebo",[4],0.72
same,"Δ to placebo: mPPT Climb One Flight of Stairs scores, change from baseline",[4],0.19
same,"Change from baseline in mPPT Climb One Flight of Stairs scores, Δ to placebo",[5],0.3
same,"Change from baseline in mPPT Climb Stairs (Flights Up and Down) scores, Δ to placebo",[5],0.01
same,"Change from baseline in mPPT Climb One Flight of Stairs scores, Δ to placebo","67.5 mg bid, HD1 patients, 52 weeks",0.01
same,"Change from baseline in mPPT Climb One Flight of Stairs scores, Δ to placebo","67.5 mg bid, HD2 patients, 52 weeks",0.34
same,"Change from baseline in mPPT Climb Stairs (Flights Up and Down) scores, Δ to placebo",[6],−0.14
same,"Δ to placebo: mPPT 50 Feet Walk scores, change from baseline",[6],0
same,Δ to placebo: mPPT Chair Rise scores,[6],0.01
same,"Δ to placebo: mPPT Climb One Flight of Stairs scores, change from baseline",[6],0.11
same,"Δ to placebo: mPPT Lift a Book and Put it on the Shelf scores, change from baseline",[6],0.1
same,"Δ to placebo: mPPT Pick up a Penny from the Floor scores, change from baseline",[6],0.14
same,"Δ to placebo: mPPT Put on and Remove a Jacket scores, change from baseline",[6],0.17
same,"Δ to placebo: mPPT Turn 360 Degrees scores, change from baseline",[6],−0.06
same,Δ to placebo: mPPT standing static balance scores,[6],−0.2
same,"Change from baseline in mPPT Climb Stairs (Flights Up and Down) scores, Δ to placebo",[7],0.04
same,"Δ to placebo: mPPT 50 Feet Walk scores, change from baseline",[7],0.15
same,Δ to placebo: mPPT Chair Rise scores,[7],−0.1
same,"Δ to placebo: mPPT Climb One Flight of Stairs scores, change from baseline",[7],0.13
same,"Δ to placebo: mPPT Lift a Book and Put it on the Shelf scores, change from baseline",[7],0.17
same,"Δ to placebo: mPPT Pick up a Penny from the Floor scores, change from baseline",[7],0.09
same,"Δ to placebo: mPPT Put on and Remove a Jacket scores, change from baseline",[7],0.21
same,"Δ to placebo: mPPT Turn 360 Degrees scores, change from baseline",[7],−0.1
same,Δ to placebo: mPPT standing static balance scores,[7],−0.19
same,"Change from baseline in mPPT Climb One Flight of Stairs scores, Δ to placebo","67.5 mg bid, late stage HD patients with BL TFC 0-6, 52 weeks",−0.3
same,"Change from baseline in mPPT Climb Stairs (Flights Up and Down) scores, Δ to placebo",[8],0.16
same,"Δ to placebo: mPPT Climb One Flight of Stairs scores, change from baseline",[8],−0.3
same,"Change from baseline in mPPT Climb One Flight of Stairs scores, Δ to placebo",[9],0.22
same,"Change from baseline in mPPT Climb Stairs (Flights Up and Down) scores, Δ to placebo",[9],0.1
same,"Change from baseline in mPPT Climb One Flight of Stairs scores, Δ to placebo","90 mg bid, HD1 patients, 52 weeks",−0.06
same,"Change from baseline in mPPT Climb One Flight of Stairs scores, Δ to placebo","90 mg bid, HD2 patients, 52 weeks",0.28
same,"Change from baseline in mPPT Climb Stairs (Flights Up and Down) scores, Δ to placebo",[10],−0.08
same,"Δ to placebo: mPPT 50 Feet Walk scores, change from baseline",[10],−0.1
same,Δ to placebo: mPPT Chair Rise scores,[10],0.01
same,"Δ to placebo: mPPT Climb One Flight of Stairs scores, change from baseline",[10],0.15
same,"Δ to placebo: mPPT Lift a Book and Put it on the Shelf scores, change from baseline",[10],0.04
same,"Δ to placebo: mPPT Pick up a Penny from the Floor scores, change from baseline",[10],0.1
same,"Δ to placebo: mPPT Put on and Remove a Jacket scores, change from baseline",[10],−0.01
same,"Δ to placebo: mPPT Turn 360 Degrees scores, change from baseline",[10],0.12
same,Δ to placebo: mPPT standing static balance scores,[10],−0.1
same,"Change from baseline in mPPT Climb Stairs (Flights Up and Down) scores, Δ to placebo",[11],−0.04
same,"Δ to placebo: mPPT 50 Feet Walk scores, change from baseline",[11],−0.23
same,Δ to placebo: mPPT Chair Rise scores,[11],−0.31
same,"Δ to placebo: mPPT Climb One Flight of Stairs scores, change from baseline",[11],0.08
same,"Δ to placebo: mPPT Lift a Book and Put it on the Shelf scores, change from baseline",[11],0.22
same,"Δ to placebo: mPPT Pick up a Penny from the Floor scores, change from baseline",[11],0.14
same,"Δ to placebo: mPPT Put on and Remove a Jacket scores, change from baseline",[11],0.08
same,"Δ to placebo: mPPT Turn 360 Degrees scores, change from baseline",[11],0.04
same,Δ to placebo: mPPT standing static balance scores,[11],−0.14
same,"Change from baseline in mPPT Climb One Flight of Stairs scores, Δ to placebo","90 mg bid, late stage HD patients with BL TFC 0-6, 52 weeks",−0.26
same,"Change from baseline in mPPT Climb Stairs (Flights Up and Down) scores, Δ to placebo","90 mg bid, late stage HD patients with BL TFC<7, 52 weeks",−0.36
